Test results taken from PubChem BioAssay (NCI).
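Cells were grown in 96-well plates and exposed to each compound for 48 hours at five concentrations; endpoints were interpolated linearly between bracketing concentrations, or set to the highest concentration if not reached. Here, GI50 denotes the concentration required for 50% inhibition of growth. TGI: total growth inhibition.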

Experiments:
Test in all cases: NCI-60 cell line screen, 48 h
SNB-19 CNS = test system: SNB-19 CNS
HOP-92 NSCLC = test system: HOP-92 NSCLC
OVCAR-5 ovarian = test system: OVCAR-5 ovarian
HOP-62 NSCLC = test system: HOP-62 NSCLC
TK-10 renal = test system: TK-10 renal
NCI-H460 lung = test system: NCI-H460 lung
CAKI-1 renal = test system: CAKI-1 renal
KM12 colon = test system: KM12 colon
HCT-116 colon = test system: HCT-116 colon
MDA-MB-231 breast = test system: MDA-MB-231 breast

SMILES	GI50 (SNB-19 CNS) [µM]	TGI (SNB-19 CNS) [µM]	GI50 (HOP-92 NSCLC) [µM]	TGI (HOP-92 NSCLC) [µM]	GI50 (OVCAR-5 ovarian) [µM]	TGI (OVCAR-5 ovarian) [µM]	GI50 (HOP-62 NSCLC) [µM]	TGI (HOP-62 NSCLC) [µM]	GI50 (TK-10 renal) [µM]	TGI (TK-10 renal) [µM]	GI50 (NCI-H460 lung) [µM]	TGI (NCI-H460 lung) [µM]	GI50 (CAKI-1 renal) [µM]	TGI (CAKI-1 renal) [µM]	GI50 (KM12 colon) [µM]	TGI (KM12 colon) [µM]	GI50 (HCT-116 colon) [µM]	TGI (HCT-116 colon) [µM]	GI50 (MDA-MB-231 breast) [µM]	TGI (MDA-MB-231 breast) [µM]
CC(C)[NH-].CC(C)[NH-].O.O.[Cl][Pt+2][Cl]	70.9	314	22.3	70.8	51.1	145	55.8	194	190	467	8.8	62.3	31.3	124	96.1	251	20.6	69.3	63.8	254
C[C@]1(C(=O)O)N[C@H](C(=O)O)CS1	> 1000	> 1000	> 1000	> 1000	> 1000	> 1000	> 1000	> 1000	> 1000	> 1000	> 1000	> 1000	843	> 1000	> 1000	> 1000	> 1000	> 1000	> 1000	> 1000
COc1ccc2nc3cc([N+](=O)[O-])ccc3c(NCCCN(CCO)CCO)c2c1	5.68	18.6	4.31	11.2	12.5	25.2	11.4	24.1	5.95	22	2.18	8.75	10.9	22.8	2.64	9.97	2.36	9.54	7.78	21.8
O=C(NCCCCCCNC(=O)n1cc(F)c(=O)[nH]c1=O)NCCCOCCOCCOCCOCCOCCOCCOCCOCCOCCOCCOCCOCCOCCOCCOCCOCCOCCOCCOCCOCCOCCCNC(=O)C(O)C(O)C(OC1OC(CO)C(O)C(O)C1O)C(O)CO (stereo not given)	–	> 100	–	> 100	–	> 100	–	> 100	–	> 100	–	> 100	–	> 100	–	> 100	–	> 100	–	> 100
Cc1ccc(C(=O)N2CCN(C(=O)c3ccc(C)cc3)c3ccccc32)cc1	–	> 100	–	> 61.2	–	> 100	–	> 100	–	> 100	–	> 100	–	82.7	–	> 100	–	> 62.6	–	> 100
COc1cc(-c2csc(NC(=O)Nc3cc(C(F)(F)F)cc(C(F)(F)F)c3)n2)cc(OC)c1OC	3.56	15.7	1.35	4.36	3.29	14	2.11	6.36	2.45	10.3	2.74	10.8	2.88	12.1	2.49	11.8	2.55	10.2	1.59	3.92
O=C(O)c1ccc2c3c(ncnc13)-c1ccccc1C2=O	3.52	> 100	> 100	> 100	37.9	> 100	1.76	3.75	21.9	> 100	2.43	6.02	> 81.1	> 100	7	> 100	27.2	> 100	> 100	> 100
O=C(NCCN1CCC(O)CC1)c1cc2c(o1)C(=O)c1ccccc1C2=O	0.27	0.956	1.48	3.19	0.212	0.384	0.23	0.51	2	3.59	0.192	0.39	1.28	2.66	0.481	1.87	0.301	1.05	0.377	2.9
Cc1ccc(C(=O)/C(=C\c2ccc([N+](=O)[O-])cc2)S(=O)Cc2ccc(F)cc2)cc1 (stereo not given)	1.75	3.33	1.93	3.87	1.96	3.93	2.35	6.3	1.72	3.28	1.89	3.85	1.77	3.84	2.12	4.78	0.499	1.79	1.83	3.68
Nc1nc2ccc3[nH]ncc3c2c2c1CCCC2	2.64	10.8	2.09	7.79	1.94	8.91	1.99	6.77	2	14.5	1.6	4.56	0.609	8.24	2.82	11.6	1	5.86	2.74	8.45
O=CC(Br)C(Br)c1ccccc1 (stereo not given)	12.8	26.2	1.52	2.89	4.5	13.2	13.3	27.8	1.74	3.56	14.5	31.2	2.6	6.98	12.6	26	0.225	0.523	2.01	4.22
c1cncc(-c2nc3ccccc3s2)c1	> 100	> 100	18	> 100	> 100	> 100	> 100	> 100	> 100	> 100	> 100	> 100	> 100	> 100	> 100	> 100	> 100	> 100	> 100	> 100
O=C1NC(=O)C(c2ccc(Cl)cc2)=C1Nc1ccc(Cl)c(C(=O)O)c1	> 25	> 25	> 25	> 25	> 25	> 25	> 25	> 25	> 25	> 25	> 25	> 25	> 25	> 25	> 25	> 25	> 25	> 25	> 25	> 25
